Here are results for 16 compounds from ChEMBL document CHEMBL4340517, “Synthesis and biological evaluation of 7-substituted cycloberberine derivatives as potent antibacterial agents against MRSA” (2019).

For assay [1], the system named is Staphylococcus epidermidis. The assay can be described thus: Antibacterial activity against methicillin-resistant Staphylococcus epidermidis 13-3 after 18 hrs by agar dilution method. Type of assay: functional. Particulars: 13-3, 18 h. (In agar dilution the substance is mixed into plates at graded concentrations.)
In a further assay the test system is Enterococcus faecium. In words: Antibacterial activity against VAN-resistant Enterococcus faecium ATCC 700221 after 18 hrs by agar dilution method. It is filed as functional. As to conditions: ATCC 700221, 18 h.
The subject of assay [2] is Staphylococcus aureus. The assay can be described thus: Antibacterial activity against methicillin-sensitive Staphylococcus aureus ATCC 29213 after 18 hrs by agar dilution method. As to conditions: ATCC 29213, 18 h. It is filed as functional.
The test system of assay [3] is Enterococcus faecalis. In words: Antibacterial activity against VAN-resistant Enterococcus faecalis ATCC 51299 after 18 hrs by agar dilution method. Type of assay: functional. Particulars: ATCC 51299, 18 h.
Assay [4] has as its system Staphylococcus aureus. The assay can be described thus: Antibacterial activity against VAN-intermediate Staphylococcus aureus ATCC 700698 after 18 hrs by agar dilution method. As to conditions: ATCC 700698, 18 h. Type of assay: functional.
In assay [5] the test system is Staphylococcus aureus. The assay can be described thus: Antibacterial activity against methicillin-resistant Staphylococcus aureus ATCC 33591 after 18 hrs by agar dilution method. It is filed as functional. As to conditions: ATCC 33591, 18 h.
Assay [6] relates to Enterococcus faecalis. The assay can be described thus: Antibacterial activity against VAN-sensitive Enterococcus faecalis ATCC 29212 after 18 hrs by agar dilution method. It is filed as functional. As to conditions: ATCC 29212, 18 h.
The subject of assay [7] is Staphylococcus aureus. In words: Antibacterial activity against methicillin-resistant Staphylococcus aureus 18-4 after 18 hrs by agar dilution method. It is filed as functional. Particulars: 18-4, 18 h.
The target of assay [8] is Topoisomerase IV (Staphylococcus aureus) (UniProt P0C1U9+P0C1S7). The assay can be described thus: Inhibition of methicillin-resistant Staphylococcus aureus topoisomerase-4 assessed as reduction in DNA decatenation at 2.5 to 5 ug/ml using super coiled pBR322 plasmid DNA as substrate measured after 30 mins by agarose gel electrophoresis method relative to control. Type of assay: protein-complex assay.

Assay [9] has as its system Staphylococcus aureus. In words: Bactericidal activity against methicillin-resistant Staphylococcus aureus 18-4 assessed as reduction in bacterial growth at 8 times MIC measured within 2 hrs by time kill assay relative to control. It is filed as functional.
In assay [10] the test system is Staphylococcus aureus. In words: Bactericidal activity against methicillin-resistant Staphylococcus aureus 18-4 assessed as reduction in bacterial growth at 2 to 32 times MIC measured within 8 hrs by time kill assay relative to control. It is filed as functional.
In assay [11] the test system is Staphylococcus aureus. In words: Bactericidal activity against methicillin-resistant Staphylococcus aureus 18-4 assessed as reduction in bacterial growth at 2 times MIC measured after 24 hrs by time kill assay relative to control. Type of assay: functional.

Calls of active or inactive are those of the source. No cut-off for these calls is given here.

In general, MIC refers to the lowest concentration that inhibits growth of the organism. Take `CCOc1c(OC)ccc2c1c(-c1ccccc1)[n+]1c3c2ccc2c4c(cc(c23)CC1)OCO4.[Br-]`: the MIC in [1] turned out to be 1 µg/mL; in the assay on Enterococcus faecium, 2 µg/mL; against Staphylococcus aureus [2] it was 1 µg/mL; against Enterococcus faecalis [3], 4 µg/mL; against Staphylococcus aureus [4], 32 µg/mL; against Staphylococcus aureus [5], 8 µg/mL. This compound also registered an MIC against Enterococcus faecalis [6] of 4 µg/mL.
As to `CCCCc1cc2c3ccc(OC)c(OC)c3c(-c3ccc(Cl)cc3)[n+]3c2c2c(cc4c(c12)OCO4)CC3.[Br-]`, the MIC in assay [1] came out at 1 µg/mL; in the assay with Enterococcus faecium it was 1 µg/mL; against Staphylococcus aureus [2], 1 µg/mL; against Enterococcus faecalis [3], 2 µg/mL; against Staphylococcus aureus [4] it was 32 µg/mL; in the assay on Staphylococcus aureus [5] it was 1 µg/mL. Further, the MIC against Enterococcus faecalis [6] came to 1 µg/mL.
For `COc1ccc2c(c1OC)c(CC(C)C)[n+]1c3c2ccc2c4c(cc(c23)CC1)OCO4.[Br-]`, the MIC in assay [1] came out at 4 µg/mL; in the assay on Enterococcus faecium it was 16 µg/mL; against Staphylococcus aureus [2], 4 µg/mL; against Enterococcus faecalis [3], 16 µg/mL; in the assay on Staphylococcus aureus [4] it was 16 µg/mL; against Staphylococcus aureus [5], 16 µg/mL. This compound came in with an MIC with Enterococcus faecalis [6] of 16 µg/mL.
Consider `CCCc1cc2c3ccc(OC)c(OC)c3c(-c3ccc(Cl)cc3)[n+]3c2c2c(cc4c(c12)OCO4)CC3.[Br-]`, for which the MIC in assay [1] is 4 µg/mL; in the assay on Enterococcus faecium it was > 128 µg/mL; with Staphylococcus aureus [2], 2 µg/mL; in the assay on Enterococcus faecalis [3], 32 µg/mL; with Staphylococcus aureus [4], 32 µg/mL; in the assay with Staphylococcus aureus [5], 8 µg/mL. The lowest concentration to inhibit growth in the assay on Enterococcus faecalis [6] (MIC) was 16 µg/mL.
Consider `C=Cc1c2c(OC)c(OC)ccc2c2ccc3c4c(cc5c3c2[n+]1CC5)OCO4.[Br-]`, for which the MIC in assay [1] stood at 2 µg/mL; with Enterococcus faecium, 4 µg/mL; in the assay with Staphylococcus aureus [2], 4 µg/mL; against Enterococcus faecalis [3] it was 4 µg/mL; against Staphylococcus aureus [4] it was 8 µg/mL; with Staphylococcus aureus [5], 8 µg/mL. Moreover, 4 µg/mL was the least that counted as inhibitory with Enterococcus faecalis [6] (MIC).
Take `C=CCc1c2c(OC)c(OC)ccc2c2ccc3c4c(cc5c3c2[n+]1CC5)OCO4.[Br-]`: the MIC in assay [1] was determined as 8 µg/mL; in the assay on Enterococcus faecium, 16 µg/mL; in the assay with Staphylococcus aureus [2] it was 16 µg/mL; with Enterococcus faecalis [3] it was 16 µg/mL; in the assay with Staphylococcus aureus [4], 16 µg/mL; against Staphylococcus aureus [5], 16 µg/mL. The compound further had an MIC with Enterococcus faecalis [6] of 16 µg/mL.
For `CCCCc1cc2c3ccc(OC)c(OC)c3c[n+]3c2c2c(cc4c(c12)OCO4)CC3.[Cl-]`, the MIC is 32 µg/mL in [1]; 16 µg/mL against Enterococcus faecium; 4 µg/mL in the assay on Staphylococcus aureus [2]; 32 µg/mL in the assay with Enterococcus faecalis [3]; 16 µg/mL against Staphylococcus aureus [4]; 4 µg/mL with Staphylococcus aureus [5]. For the same compound, the MIC against Enterococcus faecalis [6] stood at 16 µg/mL.
Regarding `C=Cc1c2c(OC)c(OC)ccc2c2cc(CC)c3c4c(cc5c3c2[n+]1CC5)OCO4.[Br-]`, the MIC in assay [1] came out at 1 µg/mL; with Enterococcus faecium, 1 µg/mL; against Staphylococcus aureus [2], 1 µg/mL; in the assay on Enterococcus faecalis [3] it was 4 µg/mL; against Staphylococcus aureus [4], 32 µg/mL; in the assay with Staphylococcus aureus [5], 2 µg/mL. The same compound showed an MIC with Enterococcus faecalis [6] of 2 µg/mL.
As to `COc1ccc2c(c1OC)c(-c1ccc(C)cc1)[n+]1c3c2ccc2c4c(cc(c23)CC1)OCO4.[Br-]`, the MIC in [1] was determined as 8 µg/mL; with Enterococcus faecium, 16 µg/mL; against Staphylococcus aureus [2], 8 µg/mL; with Enterococcus faecalis [3], 16 µg/mL; in the assay on Staphylococcus aureus [4] it was 16 µg/mL; in the assay with Staphylococcus aureus [5], 16 µg/mL. Also, the MIC in the assay with Enterococcus faecalis [6] came out at 16 µg/mL.
Regarding `CCc1cc2c3ccc(OC)c(OC)c3c(-c3ccccc3)[n+]3c2c2c(cc4c(c12)OCO4)CC3.[Br-]`, the minimum inhibitory concentration (MIC) in assay [1] amounted to 1 µg/mL; against Enterococcus faecium it was 1 µg/mL; with Staphylococcus aureus [2], 1 µg/mL; against Enterococcus faecalis [3] it was 4 µg/mL; in the assay with Staphylococcus aureus [4] it was 32 µg/mL; against Staphylococcus aureus [5], 8 µg/mL. The compound also returned an MIC in the assay on Enterococcus faecalis [6] of 4 µg/mL.
As for `CCc1cc2c3ccc(OC)c(OC)c3c(-c3ccc(Cl)cc3)[n+]3c2c2c(cc4c(c12)OCO4)CC3.[Br-]`, the MIC in assay [1] is 1 µg/mL; against Enterococcus faecium, 1 µg/mL; against Staphylococcus aureus [2], 1 µg/mL; against Enterococcus faecalis [3] it was 4 µg/mL; in the assay on Staphylococcus aureus [4], 32 µg/mL; in the assay with Staphylococcus aureus [5], 2 µg/mL. In the assay on Enterococcus faecalis [6], this compound showed an MIC of 4 µg/mL.
Consider `CCCc1cc2c3ccc(OC)c(OC)c3c(-c3ccccc3)[n+]3c2c2c(cc4c(c12)OCO4)CC3.[Br-]`, for which the MIC in assay [1] is 2 µg/mL; against Enterococcus faecium, > 128 µg/mL; against Staphylococcus aureus [2], 2 µg/mL; with Enterococcus faecalis [3], 16 µg/mL; against Staphylococcus aureus [4], 32 µg/mL; with Staphylococcus aureus [5] it was 2 µg/mL. Further, the MIC in the assay on Enterococcus faecalis [6] was 8 µg/mL.
Take `COc1ccc2c(c1OC)c(C1CC1)[n+]1c3c2ccc2c4c(cc(c23)CC1)OCO4.[Br-]`: the MIC in [1] was determined as 8 µg/mL; with Enterococcus faecium, 16 µg/mL; in the assay with Staphylococcus aureus [2], 8 µg/mL; in the assay on Enterococcus faecalis [3], 16 µg/mL; in the assay on Staphylococcus aureus [4], 16 µg/mL; against Staphylococcus aureus [5], 16 µg/mL. The lowest concentration to inhibit growth against Enterococcus faecalis [6] (MIC) was 16 µg/mL.
Regarding `CCc1cc2c3ccc(OC)c(OC)c3c(CC(C)C)[n+]3c2c2c(cc4c(c12)OCO4)CC3.[Br-]`, the MIC in assay [1] is 1 µg/mL; against Enterococcus faecium, 2 µg/mL; with Staphylococcus aureus [2], 1 µg/mL; in the assay on Enterococcus faecalis [3] it was 8 µg/mL; against Staphylococcus aureus [4], 32 µg/mL; in the assay with Staphylococcus aureus [5], 4 µg/mL. For the same compound, the MIC in the assay with Enterococcus faecalis [6] stood at 4 µg/mL.
On to `COc1cc2c3c(ccc4c5ccc(OC)c(OC)c5c(-c5ccc(Cl)cc5)[n+](c43)CC2)c1OC.[Br-]`, for which the MIC in assay [1] is 2 µg/mL; against Enterococcus faecium, > 128 µg/mL; against Staphylococcus aureus [2], 2 µg/mL; in the assay on Enterococcus faecalis [3], 8 µg/mL; in the assay with Staphylococcus aureus [4], 16 µg/mL; in the assay with Staphylococcus aureus [5], 8 µg/mL. The MIC against Enterococcus faecalis [6] is 16 µg/mL.
`COc1ccc2c(c1OC)c(-c1ccccc1)[n+]1c3c2ccc2c4c(cc(c23)CC1)OCO4.[Br-]`: the MIC is 1 µg/mL in [1]; 4 µg/mL against Enterococcus faecium; 1 µg/mL in the assay with Staphylococcus aureus [2]; 4 µg/mL in the assay on Enterococcus faecalis [3]; 1 µg/mL against Staphylococcus aureus [7]; 8 µg/mL in the assay with Staphylococcus aureus [4]. Also, the MIC against Staphylococcus aureus [5] and with Enterococcus faecalis [6] was 4 µg/mL throughout. The inhibition entry in assay [8] is “Active”. The “growth inhibition (GI)” value was 100% in the assay with Staphylococcus aureus [9], >90% with Staphylococcus aureus [10] and 99.99% with Staphylococcus aureus [11].
